Values of other authors, collected in patent US20240390346A1, “COMPOSITIONS FOR A DIETARY SUPPLEMENT TO MANAGE SENESCENT CELLS” (Neurohacker Collective, LLC, priority 2023, published 2024).

Test system: senescent cells
Settings: literature studies

Row | Compound | senolytic / senomorphic activity
1 | O=c1c(O)c(-c2ccc(O)c(O)c2)oc2cc(O)ccc12 [Fisetin] | both senolytic and senomorphic activity
2 | O=c1cc(-c2ccc(O)c(O)c2)oc2cc(O)cc(O)c12 [Luteolin] | senolytic activity
3 | O=c1c(O)c(-c2ccc(O)c(O)c2)oc2cc(O)cc(O)c12 [quercetin] | both senolytic and senomorphic
4 | COc1cc(/C=C/C(=O)N2CCC=CC2=O)cc(OC)c1OC [Piperlongumine] | senolytic activity
